By Ki is commonly meant the dissociation constant of the complex between target and ligand, obtained from inhibition or displacement. Read a low Ki as higher affinity. As usually defined, the IC50 is the midpoint of a concentration-inhibition curve.

Results on 4 compounds are retold here after patent US7678826B2, “Organic compounds for the treatment of inflammatory or allergic conditions” (priority 2005, dated 2010).

For assay [1], the target named is T1, CRTh2 receptor (Homo sapiens, UniProt Q9Y5Y4).
T1 construct: expressed in transfected cells; host or cells: CHO.K1 (Chinese Hamster Ovary) cells, CHO.K1-CRTh2
T1 sequence (Q9Y5Y4 1-395): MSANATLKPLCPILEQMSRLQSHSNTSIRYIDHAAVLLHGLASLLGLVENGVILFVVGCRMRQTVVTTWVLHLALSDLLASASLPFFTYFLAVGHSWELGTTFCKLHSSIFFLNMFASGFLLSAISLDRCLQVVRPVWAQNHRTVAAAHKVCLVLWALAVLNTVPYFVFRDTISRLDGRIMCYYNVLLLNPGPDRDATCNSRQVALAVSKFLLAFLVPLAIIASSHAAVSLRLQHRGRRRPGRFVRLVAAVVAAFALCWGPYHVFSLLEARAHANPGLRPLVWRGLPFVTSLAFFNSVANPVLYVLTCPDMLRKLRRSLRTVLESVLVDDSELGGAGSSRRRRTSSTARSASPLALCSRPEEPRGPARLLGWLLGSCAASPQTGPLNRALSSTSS
Kind of assay: Filtration binding assay: competition with [3H]-PGD2 on CHO.K1-CRTh2 membranes (results text calls it SPA binding assay). The conditions noted are these: [3H]-PGD2 2.5 nM, Cheng-Prussoff. The procedure: The binding of CRTh2 antagonists is determined using membranes prepared from human CRTh2-expressing Chinese Hamster Ovary cells (CHO.K1-CRTh2). To produce cell membranes CHO.K1-CRTh2 cells cultured in roller bottles are harvested using cell dissociation buffer (Invitrogen). The cells are pelleted by centrifugation (167 g, 5 minutes). The cell pellet is incubated in hypotonic buffer (15 mM Tris-OH, 2 mM MgCl2, 0.3 mM EDTA, 1 mM EGTA, 1× Complete™ tablet) at 4° C. for 30 minutes. At 4° C. cells are homogenized using a Polytron® (IKA Ultra Turrax T25) for 5 bursts of 1 second. The homogenate is centrifuged (Beckman Optima TM TL Ultracentrifuge, 48,000 g, 30 minutes at 4° C.). The supernatant is discarded and the membrane pellet re-suspended in homogenisation buffer (75 mM Tris-OH, 12.5 mM MgCl2, 0.3 mM EDTA, 1 mM EGTA, 250 mM Sucrose, 1× Complete™ tablet. Membrane preparations are aliquoted and stored at […]. The protein content is estimated using Bradford Protein Assay Dye (Bio Rad).
The binding of [^3H]-PGD2 (157 Ci/mmol) to CHO.K1-CRTh2 membranes is determined in the absence (total binding) and presence (non-specific binding) of unlabelled PGD2 (1 μM). Subtraction of the cpm (counts per minute) of [^3H]-PGD2 binding in presence of excess unlabelled PGD2 from that observed in the absence of excess unlabelled PGD2 is defined as specific binding. Active CRTh2 antagonists are able to compete with [^3H]-PGD2 for binding to the CRTh2 receptor and are identified in a decrease in the number of cpm bound.
The assay is performed in Greiner U-bottomed 96 well-plates, in a final volume of 100 μL/well. CHO.K1-CRTh2 membranes were diluted in assay buffer (10 mM HEPES-KOH (pH 7.4), 1 mM EDTA and 10 mM MnCl2) and 10 μμg are added to each well. [^3H]-PGD2 is diluted in assay buffer and added to each well at a final concentration of 2.5 nM. To determine non-specific binding, [3H]-PGD2 binding to the CRTh2 receptor is competed with using unlabelled PGD2 at a final well concentration of 1 μM. The experiment is done in triplicate, with reagents added to the wells as follows: • 25 μL assay buffer for total binding or • 25 μL PGD2 to determine non-specific binding • 25 μL [^3H]PGD2 • […] membranes • 25 μL test compound in DMSO/assay buffer
The plates are incubated at RT on a shaker for 1 hour, and then harvested (Tomtec Harvester 9600) onto GF/C filter plates using wash buffer (10 mM HEPES-KOH, pH 7.4). […] Plates are then counted using a Packard Top Count instrument, Plates are then read on the Packard Topcount with the 3H Scintillation program (1 minute/well).
Ki (dissocation constant for the inhibition) values for the CRTh2 antagonists are reported. Ki values are determined using Sigma Plot™ software, using the Cheng-Prussoff equation. […]

In assay [2] the target is T1, CRTh2 receptor. Nature of the assay: CRTH2 cAMP functional assay: inhibition of PGD2-mediated attenuation of forskolin-induced cAMP accumulation in CHO.K1-CRTh2 cells. The class given is cell-based. The note with it: 10 nM PGD2, 5 μM forskolin, cAMP Alphascreen. On the procedure: Ki (dissocation constant for the inhibition) values for the CRTh2 antagonists are reported. Ki values are determined using Sigma Plot™ software, using the Cheng-Prussoff equation. Ki=IC50/1+[S]/Kd, where S is the concentration of radioligand and Kd is the dissociation constant. CRTH2 cAMP Functional Assay Protocol
This assay is conducted in CHO.K1-CRTh2 cells. cAMP is generated in the cell by stimulating cells with 5 μM forskolin, an adenylate cyclase activator. PGD2 is added to activate the CRTh2 receptor which results in the attenuation of the forskolin-induced cAMP accumulation. Potential CRTh2 antagonists are tested for their ability to inhibit the PGD2-mediated attenuation of the forskolin-induced cAMP accumulation in CHO.K1-CRTh2 cells.
For each concentration value on the dose-response curve, test compounds are prepared in assay stimulation buffer (HBSS, 5 mM HEPES, 10 μM IBMX±0.1% human serum albumin) containing DMSO (3% vol/vol) and 5 μL/well is added to an assay plate (384-well white optiplate).
CHO.K1-CRTh2 cultured in tissue culture flasks are washed with PBS and harvested with dissociation buffer. Cells are washed with PBS and resuspended in stimulation buffer to a concentration of 0.4×10^6/mL and added to the assay plate (10 μL/well).
The assay plate is incubated at room temperature on a shaker for 15 minutes.
A mix of agonist (10 nM Prostaglandin D2) and 5 μM forskolin is prepared in assay stimulation buffer and added to the assay plate (5 μL/well).
In addition, a cAMP standard is serially diluted in assay stimulation buffer and added to separate empty wells on the assay plate (20 μL/well). The cAMP standard allows for the quantification of cAMP generated in CHO.K1-CRTH2 cells.
The assay plate is incubated at room temperature on a shaker for 60 minutes.
Cell lysis buffer (Lysis buffer: Milli-Q H2O, 5 mM HEPES, 0.3% Tween-20, 0.1% human serum albumin) is added to a bead mix (containing Alphascreen™ anti-cAMP acceptor beads 0.06 units/μL, Alphascreen™ streptavidin-coated donor beads 0.06 units/μL, biotinylated cAMP 0.06 units/μL, 10 μM IBMX) is prepared under darkened conditions 60 minutes prior to addition to the assay plate. The resulting lysis mix is added to all wells of the assay plate (40 μL/well).
The assay plate is sealed with Topseal-S™ and incubated in the dark at room temperature on a shaker for 45 minutes. The plate is then counted using a Packard Fusion™ instrument.
The resulting counts per minute are converted to nM cAMP by using the prepared cAMP standard curve. IC50 values (concentration of CRTh2 antagonist required to inhibit 50% of the PGD2-mediated attenuation of forskolin-induced cAMP accumulation in CHO.K1-CRTh2 cells) are then determined using Prism™ software.
(Changes in cAMP serve as a functional read-out for many G protein-coupled receptors.)

For the compound `CC(Oc1ccccc1Cc1cc(Cl)ccc1OCC(=O)O)C(=O)N1CCCC1` (centres unmarked) [Example 7, {4-Chloro-2-[2-(1-methyl-2-oxo-2-pyrrolidin-1-yl-ethoxy)-benzyl]-phenoxy}acetic acid], in assay [1], the inhibition constant (Ki) worked out at 82.4 nM. 37.5 nM corresponded to half-maximal inhibition in assay [2] (IC50).
For `CC(Oc1ccc(Cl)cc1Cc1cc(Cl)ccc1OCC(=O)O)C(=O)N1CCOCC1` (centres unmarked) [Example 3, {4-Chloro-2-[5-chloro-2-(1-methyl-2-morpholin-4-yl-2-oxo-ethoxy)-benzyl]-phenoxy}-acetic acid], in that order: 95 nM and 22.5 nM.
For `CC(Oc1ccccc1Cc1cc(Cl)ccc1OCC(=O)O)C(=O)N1CCCC1` (single isomer, unassigned) [8 (enantiomer 1), {4-Chloro-2-[2-((R/S)-1-methyl-2-oxo-2-pyrrolidin-1-yl-ethoxy)-benzyl]-phenoxy}-acetic acid] the same measures were 60.2 nM and 25 nM.
`CC(Oc1ccc(Cl)cc1Cc1cc(Cl)ccc1OCC(=O)O)C(=O)N1CCCC1` (racemic) [Example 1, {4-Chloro-2-[5-chloro-2-(1-methyl-2-oxo-2-pyrrolidin-1-yl-ethoxy)-benzyl]-phenoxy}-acetic acid] returned a Ki in assay [1] of 40.3 nM. Further, half-maximal inhibition in assay [2] (IC50) required 22.5 nM.
